Columns and labels:
Test in all cases: relative viability (nuclei count vs DMSO), 5 days (fraction); higher = more cells survive
CUDC-101 + Bortezomib = compound: C#Cc1cccc(Nc2ncnc3cc(OC)c(OCCCCCCC(=O)NO)cc23)c1 [CUDC-101] + CC(C)C[C@H](NC(=O)[C@H](Cc1ccccc1)NC(=O)c1cnccn1)B(O)O [Bortezomib] (partner 0.002 µM)
Summary of the method: (§1)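 Relative viability divides the nuclei count in treated wells by that in vehicle wells. Lung cancer cell lines were seeded in 1536-well plates, dosed by pin tool the next day, and fixed and stained after 5 days in one step with final 0.05% Triton X-100, 1% formaldehyde and 1 ug/ml Hoechst. Dosing was a single drug or a fixed anchor-drug dose plus five library-drug doses (not always all listed) in √10 steps, and values are medians of duplicate plates imaged at 4×.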

NVP-TAE684 + Lapatinib = compound: COc1cc(N2CCC(N3CCN(C)CC3)CC2)ccc1Nc1ncc(Cl)c(Nc2ccccc2S(=O)(=O)C(C)C)n1 [NVP-TAE684] + CS(=O)(=O)CCNCc1ccc(-c2ccc3ncnc(Nc4ccc(OCc5cccc(F)c5)c(Cl)c4)c3c2)o1 [Lapatinib] (partner 2 µM)
Summary of the method: as §1

NVP-TAE684 + Luminespib = compound: COc1cc(N2CCC(N3CCN(C)CC3)CC2)ccc1Nc1ncc(Cl)c(Nc2ccccc2S(=O)(=O)C(C)C)n1 [NVP-TAE684] + CCNC(=O)c1noc(-c2cc(C(C)C)c(O)cc2O)c1-c1ccc(CN2CCOCC2)cc1 [Luminespib] (partner 0.01 µM)
Summary of the method: as §1

[1] = compound: C1=CC=C2C(=C1)N=C(S2)C(C#N)C3=NC(=NC=C3)NCCC4=CN=CC=C4 + Cc1nc(Nc2ncc(C(=O)Nc3c(C)cccc3Cl)s2)cc(N2CCN(CCO)CC2)n1 [Dasatinib] (partner 0.075 µM)
Summary of the method: as §1

Cell Line	relative viability (CUDC-101 + Bortezomib; first compound 0.01 µM)	relative viability (CUDC-101 + Bortezomib; first compound 0.03162 µM)	relative viability (CUDC-101 + Bortezomib; first compound 0.1 µM)	relative viability (CUDC-101 + Bortezomib; first compound 0.3162 µM)	relative viability (CUDC-101 + Bortezomib; first compound 1 µM)	relative viability (NVP-TAE684 + Lapatinib; first compound 0.2 µM)	relative viability (NVP-TAE684 + Lapatinib; first compound 0.6325 µM)	relative viability (NVP-TAE684 + Lapatinib; first compound 2 µM)	relative viability (NVP-TAE684 + Luminespib; first compound 0.2 µM)	relative viability (NVP-TAE684 + Luminespib; first compound 0.6325 µM)	relative viability (NVP-TAE684 + Luminespib; first compound 2 µM)	relative viability ([1]; first compound 0.005 µM)	relative viability ([1]; first compound 0.01581 µM)	relative viability ([1]; first compound 0.05 µM)	relative viability ([1]; first compound 0.1581 µM)	relative viability ([1]; first compound 0.5 µM)
201T	1.08	1.06	1.09	1.11	1.08	1.09	1.05	0.928	0.964	0.992	0.69	0.799	0.523	0.599	0.549	0.486
A549	–	–	–	–	–	1.21	–	0.192	–	–	–	–	–	–	–	–
A-427	0.936	1.01	0.925	0.985	0.878	1.12	–	0.922	0.978	0.79	0.516	0.66	0.743	0.764	0.688	0.822
ABC-1	0.243	0.247	0.269	0.24	0.18	1.06	1.33	0.976	0.405	0.264	0.381	0.634	0.459	0.631	0.573	0.397
BEN	0.882	0.759	0.779	0.75	0.543	0.579	0.552	0.62	0.444	0.172	0.34	0.229	0.323	0.326	0.479	0.425
CAL-12T	1.04	1.18	0.983	0.926	0.741	0.666	0.471	0.305	0.185	0.655	0.0938	0.236	0.308	0.341	0.508	0.242
COR-L23	1.1	0.967	0.957	0.895	0.647	0.661	0.898	0.538	0.909	0.457	0.152	0.427	0.516	0.499	0.581	0.489
COR-L 105	0.833	0.963	0.639	0.611	0.176	0.376	0.319	0.235	0.674	0.798	0.317	0.344	0.297	0.34	0.303	0.29
Calu-6	0.955	1.07	1.05	1.06	0.815	1.31	0.94	–	–	–	–	–	–	–	–	–
ChaGo-K-1	1.22	1.31	0.821	1.03	0.963	–	–	–	0.661	0.67	0.44	–	0.567	0.577	0.681	0.545
EBC-1	0.658	0.421	0.409	0.245	0.153	0.221	0.223	0.192	–	–	–	–	–	–	–	–
EKVX	0.956	1.08	1.04	0.994	0.729	0.199	0.189	0.155	0.877	0.913	0.754	0.464	0.473	0.523	0.473	0.547
EMC-BAC-2	1.06	1.05	1.09	1.18	0.869	0.856	0.805	0.586	–	1.21	0.824	0.334	0.359	0.364	0.388	0.324
EPLC-272H	0.729	1	0.882	0.627	0.384	0.813	–	0.955	0.185	0.382	0.217	0.283	0.304	0.264	0.374	0.312
H3255	0.743	0.736	0.32	0.541	0.186	0.279	0.18	0.167	0.897	0.828	0.765	0.312	0.329	0.346	0.509	0.319
HARA	1.21	1.09	1.08	0.918	0.709	1.09	0.626	0.232	0.991	0.517	0.389	0.355	0.281	0.246	0.235	0.372
HCC-15	1.03	1.08	1.02	1	0.851	0.914	0.893	0.808	0.241	0.271	0.232	0.569	0.578	0.564	0.703	0.508
HCC-44	0.798	1.05	0.829	0.999	0.88	1.23	1.03	0.979	–	0.912	0.272	–	–	–	–	–
HCC-78	0.462	0.383	0.588	0.342	0.175	1.26	1.3	0.255	–	–	–	0.386	0.337	0.42	0.609	0.407
HCC-366	1.04	0.988	1.07	1.07	0.996	1.58	0.932	0.963	–	–	–	0.591	0.848	0.539	0.824	0.676
HCC-827	1.08	1.07	0.788	0.439	0.344	0.187	0.203	0.207	0.52	0.613	0.65	0.331	0.301	0.336	0.307	0.284
HOP-62	0.605	0.773	1.09	0.667	0.473	0.882	1	1.08	1.03	0.816	0.882	0.496	0.59	0.685	0.807	0.565
IA-LM	0.772	0.781	0.795	0.575	0.196	0.698	0.66	0.427	–	–	–	–	–	–	–	–
LC-2-ad	1.09	1.06	1.08	1.26	0.822	0.988	0.921	0.455	1.01	0.918	0.465	0.542	0.398	0.55	0.525	0.396

Cell Line	relative viability (CUDC-101 + Bortezomib; first compound 0.01 µM)	relative viability (CUDC-101 + Bortezomib; first compound 0.03162 µM)	relative viability (CUDC-101 + Bortezomib; first compound 0.1 µM)	relative viability (CUDC-101 + Bortezomib; first compound 0.3162 µM)	relative viability (CUDC-101 + Bortezomib; first compound 1 µM)	relative viability (NVP-TAE684 + Lapatinib; first compound 0.2 µM)	relative viability (NVP-TAE684 + Lapatinib; first compound 0.6325 µM)	relative viability (NVP-TAE684 + Lapatinib; first compound 2 µM)	relative viability (NVP-TAE684 + Luminespib; first compound 0.2 µM)	relative viability (NVP-TAE684 + Luminespib; first compound 0.6325 µM)	relative viability (NVP-TAE684 + Luminespib; first compound 2 µM)	relative viability ([1]; first compound 0.005 µM)	relative viability ([1]; first compound 0.01581 µM)	relative viability ([1]; first compound 0.05 µM)	relative viability ([1]; first compound 0.1581 µM)	relative viability ([1]; first compound 0.5 µM)
LCLC-97TM1	0.629	0.308	0.527	0.546	0.28	1.51	0.547	0.287	0.706	–	0.128	0.735	0.923	1.03	0.99	0.792
LCLC-103H	1.17	1.03	1.01	1.14	0.68	–	–	–	0.918	0.923	0.61	0.415	0.456	0.473	0.507	0.312
LK-2	–	–	–	–	–	1.01	0.721	0.69	0.169	0.157	0.167	0.393	0.264	0.243	0.26	0.311
LOU-NH91	0.544	0.488	0.452	0.405	0.448	0.781	0.648	0.516	0.305	0.339	0.296	0.501	0.567	0.509	0.58	0.471
LU99A	1.36	1.14	1.04	0.998	0.635	–	0.974	0.543	0.301	0.259	0.253	0.532	0.662	0.52	0.855	0.767
LXF-289	1.02	0.987	0.972	0.953	0.704	0.946	–	0.861	0.583	0.776	0.425	0.152	0.237	0.209	0.24	0.179
NCI-H23	0.922	0.935	1.18	1.13	0.955	1.15	1.05	0.512	0.225	0.21	0.204	0.645	0.836	1.02	0.974	0.993
NCI-H322M	1.15	1.44	1.18	1.08	0.776	0.637	0.609	0.404	0.779	0.751	0.432	0.232	0.238	0.23	0.259	0.26
NCI-H358	–	–	–	–	–	0.397	0.328	0.256	0.25	0.337	0.115	0.177	0.155	0.162	0.178	0.245
NCI-H441	0.662	0.433	0.541	0.593	0.335	–	–	–	0.315	0.313	0.36	–	0.663	0.638	0.473	0.425
NCI-H460	1.13	1.04	1.09	1.11	1.18	0.903	1.29	0.441	0.0418	0.0325	0.0305	0.356	0.47	0.451	0.732	0.418
NCI-H520	0.761	–	0.253	0.252	0.116	0.761	0.884	0.454	0.189	0.219	0.219	0.231	0.158	0.188	0.324	0.18
NCI-H522	–	–	–	–	–	–	–	–	0.925	1.28	1.02	0.873	0.822	0.884	1.05	0.935
NCI-H596	1.13	1.13	1.18	0.98	1	0.915	0.949	0.893	0.914	0.832	0.758	0.559	0.559	0.534	0.526	0.619
NCI-H1299	1.05	0.997	1.07	1.05	1.03	1.03	0.964	0.836	–	–	–	–	–	–	–	–
NCI-H1395	–	–	–	–	–	1.29	0.921	0.859	0.686	0.834	0.732	0.353	0.398	0.408	0.411	0.396
NCI-H1623	–	–	–	–	–	–	–	–	0.531	0.54	0.322	0.476	0.476	0.514	0.612	0.591
NCI-H1703	0.401	–	0.305	0.194	0.13	1.41	0.994	0.392	–	–	–	–	–	–	–	–
NCI-H1793	–	–	–	–	–	0.925	0.499	0.611	0.164	0.168	0.144	0.366	0.419	0.363	0.436	0.435
NCI-H1944	–	–	–	–	–	–	0.798	0.607	0.667	0.741	0.58	0.211	0.195	0.21	0.22	0.2
NCI-H2170	–	–	–	–	–	0.253	0.244	0.247	0.747	0.618	0.663	0.447	0.498	0.501	0.675	0.611
NCI-H2342	–	–	–	–	–	–	–	–	0.742	0.845	0.647	0.32	0.314	0.349	0.328	0.337
SK-MES-1	–	–	–	–	–	0.539	0.453	0.472	0.842	0.76	0.321	0.303	0.403	0.394	0.327	0.371
SW 900	–	–	–	–	–	–	–	–	0.164	0.154	0.158	0.625	0.53	0.564	0.844	0.543

— the supplement of paper PMC10307832
